Measured values as given in patent US8119633B2, “Substituted sulfonamide compounds” (Gruenenthal GmbH, priority 2007, dated 2012).

How the values were obtained:
[1] = target: T1, human bradykinin receptor 1 (B1R) (Homo sapiens, UniProt P46663); experiment: Functional study on the bradykinin receptor 1 (B1R), human: FLIPR Ca2+ influx assay; assay type: cell-based; conditions: test substance 10 μM, CHO K1 cells transfected with human B1R, Lys-Des-Arg9-bradykinin at EC80, Ca2+ influx (Fluo-4, FLIPR); for inhibition at 10 µM: read-out: B1R antagonism, human [10 μM] % inhibition
T1 construct: expressed in transfected cells; host or cells: CHO K1 cells
T1 sequence (P46663 1-353): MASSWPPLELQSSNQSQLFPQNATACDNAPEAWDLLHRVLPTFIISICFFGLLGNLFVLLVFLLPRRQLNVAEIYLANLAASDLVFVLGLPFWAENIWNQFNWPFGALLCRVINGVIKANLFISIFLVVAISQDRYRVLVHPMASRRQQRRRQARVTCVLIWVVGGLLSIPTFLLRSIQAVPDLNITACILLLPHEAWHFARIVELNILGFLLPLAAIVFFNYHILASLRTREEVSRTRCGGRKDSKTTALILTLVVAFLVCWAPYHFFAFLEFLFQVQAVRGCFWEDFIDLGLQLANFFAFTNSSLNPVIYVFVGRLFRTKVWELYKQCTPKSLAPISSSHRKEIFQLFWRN
Method in brief: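 CHO K1 cells stably expressing human B1R were loaded with Fluo-4, and Ca2+ fluorescence was read on FLIPR (ex 488/em 540 nm). Compound was added first (10 μM for % activation against Lys-Des-Arg9-bradykinin ≥0.5 nM). After 10-20 min, Lys-Des-Arg9-bradykinin was added at EC80 for % inhibition; IC50 came from concentration series, n=2-3, N≥2.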

[2] = target: T2, bradykinin receptor 1 (B1R) of the rat (Rattus norvegicus, UniProt P97583); experiment: Functional study on the bradykinin receptor 1 (B1R), rat: FLIPR Ca2+ influx assay; assay type: cell-based; conditions: test substance 10 μM, CHO K1 cells transfected with rat B1R, Des-Arg9-bradykinin at EC80, Ca2+ influx (Fluo-4, FLIPR); for inhibition at 10 µM: read-out: B1R antagonism, rat [10 μM] % inhibition
T2 construct: expressed in transfected cells; host or cells: CHO K1 cells
T2 sequence (P97583 1-337): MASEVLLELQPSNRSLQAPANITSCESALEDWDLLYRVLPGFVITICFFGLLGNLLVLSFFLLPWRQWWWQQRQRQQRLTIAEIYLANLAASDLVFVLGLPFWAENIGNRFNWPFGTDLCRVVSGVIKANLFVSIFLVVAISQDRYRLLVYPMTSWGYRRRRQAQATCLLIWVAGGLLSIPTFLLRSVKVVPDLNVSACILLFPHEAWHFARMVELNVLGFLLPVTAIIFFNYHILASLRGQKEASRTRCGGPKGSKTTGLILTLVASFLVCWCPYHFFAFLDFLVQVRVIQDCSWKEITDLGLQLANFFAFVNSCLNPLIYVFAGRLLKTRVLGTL
Method in brief: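 CHO K1 cells stably expressing rat B1R, Fluo-4-loaded, read on FLIPR (ex 488/em 540 nm, peak fluorescence). Test substances added first (agonism vs 10 μM Des-Arg9-bradykinin), then after 10-20 min Des-Arg9-bradykinin at EC80; % inhibition and IC50 from concentration series, n=2-3, N≥2.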

human μ-opiate receptor = target: T3, human μ-opiate receptor (Homo sapiens, UniProt P35372); experiment: Affinity for the human μ-opiate receptor ([3H]-naloxone displacement, SPA); conditions: test substance 1 μmol/l, inhibition of specific [3H]-naloxone binding, CHO-K1 receptor membrane preparation; for inhibition at 1 µM: read-out: μ-Opioid receptor [1 μM] % inhibition
T3 construct: purchased PerkinElmer Life Sciences, Zaventem, Belgium RB-HOM; host or cells: CHO-K1 cells (membrane preparation)
Method in brief: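 Membranes from CHO-K1 cells expressing human μ-opiate receptor were incubated 90 min at room temperature with 1 nmol/l [3H]-naloxone and WGA-SPA beads in 50 mmol/l Tris-HCl with 0.06% BSA; non-specific binding was defined with 100 μmol/l naloxone. Percent inhibition was measured at 1 μmol/l, IC50 was derived from concentration series, and Ki was obtained by Cheng-Prusoff.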

T3 sequence (P35372 whole entry): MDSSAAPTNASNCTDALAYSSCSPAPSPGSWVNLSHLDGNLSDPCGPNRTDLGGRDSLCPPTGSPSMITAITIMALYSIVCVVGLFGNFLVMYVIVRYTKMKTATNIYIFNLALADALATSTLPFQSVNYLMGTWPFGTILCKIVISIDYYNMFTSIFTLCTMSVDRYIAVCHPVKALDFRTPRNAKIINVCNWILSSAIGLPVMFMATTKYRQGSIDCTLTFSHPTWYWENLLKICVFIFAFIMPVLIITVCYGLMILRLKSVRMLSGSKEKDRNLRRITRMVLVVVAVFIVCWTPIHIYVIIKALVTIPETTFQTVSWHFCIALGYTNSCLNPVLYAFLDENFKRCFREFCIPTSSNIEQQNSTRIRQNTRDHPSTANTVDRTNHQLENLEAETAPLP

| Compound | inhibition at 10 µM [1] [%] | inhibition at 10 µM [2] [%] | inhibition at 1 µM (human μ-opiate receptor) [%] | B1R antagonism, human [10 μM] % inhibition [1] [%] | B1R antagonism, rat [10 μM] % inhibition [2] [%] | μ-Opioid receptor [1 μM] % inhibition (human μ-opiate receptor) [%] |
| --- | --- | --- | --- | --- | --- | --- |
| O=C(CC1C(=O)Nc2ccccc2N1S(=O)(=O)c1ccc(Cl)c(Cl)c1)NCC1CCC(C(CCc2ccccc2)N2CCCC2)CC1 (stereo not drawn) [Example 66, 2-[1-(3,4-dichloro-benzenesulfonyl)-3-oxo-1,2,3,4-tetrahydro-quinoxalin-2-yl]-N-[4-(3-phenyl-1-pyrrolidin-1-yl-propyl)-cyclohexylmethyl]-acetamide] | 102 | 96 | 11 |  |  |  |
| O=C(CC1CCCCN1S(=O)(=O)c1ccc(Cl)c(Cl)c1)NCC1CCC(C(CCc2ccccc2)N2CCCC2)CC1 (stereo not drawn) [Example 84, 2-[1-(3,4-dichloro-benzenesulfonyl)-piperidin-2-yl]-N-[4-(3-phenyl-1-pyrrolidin-1-yl-propyl)-cyclohexylmethyl]-acetamide] | 95.4 | 19 | 90 |  |  |  |
| Cc1cc(S(=O)(=O)N2CCCCC2CCC(=O)N2CCC(C(CCc3ccccc3)N3CCN(C)CC3)CC2)c(C)cc1Cl (stereo not drawn) [Example 119, 3-(1-(4-chloro-2,5-dimethylphenylsulfonyl)piperidin-2-yl)-1-(4-(1-(4-methyl-piperazin-1-yl)-3-phenylpropyl)piperidin-1-yl)propan-1-one] | 102 | 97 | 52 |  |  |  |
| CN1CCN(C(c2ccccc2)C2CCN(C(=O)CC3CCCCN3S(=O)(=O)c3cccc(C(F)(F)F)c3)CC2)CC1 (stereo not drawn) [Example 108, 1-(4-((4-methylpiperazin-1-yl)(phenyl)methyl)piperidin-1-yl)-2-(1-(3-(trifluoromethyl)phenylsulfonyl)piperidin-2-yl)ethanone] | 97 | 78 | 6 |  |  |  |
| O=C(CC1CCCN1S(=O)(=O)c1ccc(Cl)c(Cl)c1)NC1CCC(C(CCc2ccccc2)N2CCCCC2)CC1 (stereo not drawn) [Example 77, 2-(1-(3,4-dichlorophenylsulfonyl)pyrrolidin-2-yl)-N-(4-(3-phenyl-1-(piperidin-1-yl)propyl)cyclohexyl)acetamide] | 102 | 1 | 35 |  |  |  |
| CN1CCN(C(c2cccc(F)c2)C2CCN(C(=O)CC(NS(=O)(=O)c3ccc4ccccc4c3)c3ccccc3)CC2)CC1 (stereo not drawn) [Example 110, N-(3-(4-((3-fluorophenyl)(4-methylpiperazin-1-yl)methyl)piperidin-1-yl)-3-oxo-1-phenylpropyl)naphthalene-2-sulfonamide] | 102 | 100 | 3 |  |  |  |
| O=C1Nc2ccccc2N(S(=O)(=O)c2ccc(Cl)c(Cl)c2)C1CC(=O)N1CCC(C(Cc2ccccc2)N2CCOCC2)CC1 (stereo not drawn) [Example 72, 4-(3,4-dichlorophenylsulfonyl)-3-(2-(4-(1-morpholino-2-phenylethyl)piperidin-1-yl)-2-oxoethyl)-3,4-dihydroquinoxalin-2(1H)-one] | 102 | 30 | 26 |  |  |  |
| N-(3-(4-(1-(4-methylpiperazin-1-yl)-3-phenylpropyl)piperidin-1-yl)-3-oxo-1-phenylpropyl)naphthalene-2-sulfonamide [Example 113] |  |  |  | 97 | 39 | 21 |
| O=C(CC1CCCN1S(=O)(=O)c1ccc(Cl)c(Cl)c1)NCC1CCC(C(c2ccccc2)N2CCCC2)CC1 (stereo not drawn) [Example 76, 2-[1-(3,4-dichloro-benzenesulfonyl)-pyrrolidin-2-yl]-N-[4-(phenyl-pyrrolidin-1-ylmethyl)-cyclohexylmethyl]-acetamide] | 80.4 | 9 | 84 |  |  |  |
| O=C(CC1CCCCN1S(=O)(=O)c1ccc(Cl)c(Cl)c1)NCC1CCC(C(c2ccccc2)N2CCCC2)CC1 (stereo not drawn) [Example 85, 2-[1-(3,4-dichloro-benzenesulfonyl)-piperidin-2-yl]-N-[4-(phenyl-pyrrolidin-1-ylmethyl)-cyclohexylmethyl]-acetamide] | 92.7 | 22 | 95 |  |  |  |
| O=C(CC1C(=O)Nc2ccccc2N1S(=O)(=O)c1ccc(Cl)c(Cl)c1)NC1CCC(C(c2ccccc2)N2CCCC2)CC1 (stereo not drawn) [Example 103, 2-(1-(3,4-dichlorophenylsulfonyl)-3-oxo-1,2,3,4-tetrahydroquinoxalin-2-yl)-N-(4-(phenyl(pyrrolidin-1-yl)methyl)cyclohexyl)acetamide] | 103 | 37 | 71 |  |  |  |
| O=C(CC1CCCN1S(=O)(=O)c1ccc(Cl)c(Cl)c1)NC1CCC(C(c2ccccc2)N2CCOCC2)CC1 (stereo not drawn) [Example 104, 2-(1-(3,4-dichlorophenylsulfonyl)pyrrolidin-2-yl)-N-(4-(morpholino(phenyl)methyl)cyclohexyl)acetamide] | 32.8 | 13 | 11 |  |  |  |
